Data reported in US5112811A, “SDK peptides and therapeutic compositions containing them” (Societe de Conseils de Recherches et d'Applications …, priority 1989, dated 1992).
Residues, ends and D or L forms follow the SMILES beside them.

Tests used:
Jurkat T cells = assay: Rosettes protocol: rosette formation between Jurkat T cells and sheep red blood cells; assay type: cell-based
Procedure: Wash three times the red blood cells (RBC) in RPMI 1640 or RBS or Hanks +antibiotic drugs. Centrifuge for 7 minutes at 3000 rpm.
Put the cells sap in suspension. Count. Bring to 2.10^8 RBC/ml in a solution of RPMI at 20 % of Foetal Calf Serum (FCS) (4 ml formerly adsorbed on 1 ml of RBC sap, 30 minutes on an ice-bath, then centrifuge for 7 minutes at 3000 rpm and recover in sterile conditions).
Take an aliquot of Jurkat T cells in culture. Make a viability with Trypan blue.
Then take the volume of cells required for practical work. Wash the cells three times in RPMI 1640 or PBS or Hanks +antibiotic drugs. Centrifuge for 7 minutes at 900 rpm.
Put the cells sap in suspension. Count. Bring to 2.10^6 Jurkat T cells/ml of solution of RPMI at 20 % of adsorbed FCS.
Inhibiting solution =SDK (2.10^-7 mole).
Peptides to be evaluated are dissolved in RPMI 1640 at the appropriate concentration.
Place, in the tube, 200 μl of the inhibiting solution +100 μl of Jurkat T cells […] in RMPI +FCS 20 %; leave 10 minutes on an ice-bath. Add […] in RPMI +FCS 20 %.
Centrifuge for 5 minutes at 500 rpm. Leave overnight at 4° C.
Set the microscope : ocular :×6 objective :×7
Put carefully back in suspension the cells by tapping. Let it rest for a while.
Add, in the tube, 30 μl of Toluidine blue 1 % (to dye the lymphocytes). Tap gently.
Read 3 Malassex hemocytometer per experimental point.

[1] = tested on: Human peripheral mononuclear cells (MNC) stimulated by 0.1% PHA; assay: Stimulation of T lymphocytes proliferation ([3H]thymidine DNA synthesis in PHA-stimulated MNC); assay type: cell-based; details: for DNA synthesis induced in MNC stimulated by 0.1% PHA: PBL with 0.1% PHA, 3 days; for % stimulation of DNA synthesis in MNC stimulated by 0.1% PHA: versus control (RPMI 1640)
Procedure: Dilute blood at 1/2 in PBS.
On 15 ml of Ficoll-Hypaque, put 35 ml of dilute blood.
Centrifuge 30 minutes at 1800 rpm, at room temperature.
Take the ring corresponding to mononuclear cells (MNC) back with Pasteur pipette.
Wash twice in PBS (centrifuge for 10 minutes at 1800 rpm).
Bring to 2.10^6 cells/ml with RPMI 1640 "complete" medium +10 % SVF.
PHA-M : Reconstitute a 5 ml bottle lyophylized with 5 ml of "complete" medium. Solution of 100 %. Dilute to obtain a 0.4 % solution.
SDK : Tube […] +4.35 ml "complete" medium. Solution 2.3 10^-4 M.
Then dilute successively 450 μl "medium" +50 μl of dilution.
In 96-well sterilized boxes NUNC :
50 μl of PHA 0.4 % (0.1 % final)
Incubate for 3 days at 37° C. in air/CO* atmosphere 95/5. During the last 24 hours, make a puls of [^3 H] Thymidine : 1 μci/well. Pick up the wells on filters and count with a counter.

[2] = tested on: B lymphocytes which secrete IgM immunoglobulines; assay: Humoral response in mice to sheep red blood cells (hemolysis plaque technique, Jerne method); assay type: in vivo, mice of B6D2F1 strain; details: 3 μg/kg IP; for Number of P.F.C./10^6 cells: read on day +4; for % stimulation of humoral response: versus saline
Procedure: 6-to-8 week old mice of B6D2F1 strain are sensitized, on day 0, with 0.2 ml of a sheep red blood cells suspension [10^8 cells ] in a saline solution of Hanks.
The Ser-Asp-Lys and the Pro-Ser-Asp-Lys-Pro peptides (3 μg/kg) were injected in solution physiological serum, by IP route, in 0.2 ml, at the appointed time.
On day +4, animals are killed and the number of B lymphocytes which secrete IgM immunoglobulines are counted by the hemolysis plaque technique (Jerne method).
8 mice / batch. 4 determinations / animal made test : 2 experiments / point.

| SMILES | % INHIBITION of rosettes (Jurkat T cells; peptide 10^-4 M) [%] | % ROSETTES (Jurkat T cells; peptide 10^-4 M) [%] | % INHIBITION of rosettes (Jurkat T cells; peptide 10^-5 M) [%] | % ROSETTES (Jurkat T cells; peptide 10^-5 M) [%] | % INHIBITION of rosettes (Jurkat T cells; peptide 10^-6 M) [%] | % ROSETTES (Jurkat T cells; peptide 10^-6 M) [%] | % INHIBITION of rosettes (Jurkat T cells; peptide 10^-7 M) [%] | % ROSETTES (Jurkat T cells; peptide 10^-7 M) [%] | % INHIBITION of rosettes (Jurkat T cells; peptide 10^-8 M) [%] | % ROSETTES (Jurkat T cells; peptide 10^-8 M) [%] | % INHIBITION of rosettes (Jurkat T cells; peptide 10^-9 M) [%] | % ROSETTES (Jurkat T cells; peptide 10^-9 M) [%] | % ROSETTES (Jurkat T cells; peptide 10^-10 M) [%] | DNA synthesis induced in MNC stimulated by 0.1% PHA ([1]; peptide 3.10^-5 M) [cpm × 10^3 /2.10^5 cells] | % stimulation of DNA synthesis in MNC stimulated by 0.1% PHA ([1]; peptide 3.10^-5 M) | Number of P.F.C./10^6 cells ([2]; injection at 0 h) [P.F.C./10^6 cells] | % stimulation of humoral response ([2]; injection at 0 h) | Number of P.F.C./10^6 cells ([2]; injection at +24 h) [P.F.C./10^6 cells] | Number of P.F.C./10^6 cells ([2]; injection at +48 h) [P.F.C./10^6 cells] | % stimulation of humoral response ([2]; injection at +48 h) | other results |
| --- | --- | --- | --- | --- | --- | --- | --- | --- | --- | --- | --- | --- | --- | --- | --- | --- | --- | --- | --- | --- | --- |
| NCCCC[C@H](NC(=O)[C@H](CC(=O)O)NC(=O)[C@H](CO)NC(=O)[C@@H]1CCCN1)C(=O)N1CCC[C@H]1C(=O)O [PSDKP, Pro-Ser-Asp-Lys-Pro] (H-PSDKP-OH) | -37 | 37 ± 7 | -44 | 33 ± 3 | -54 | 27 ± 5 | -24 | 45 ± 6 | -19 | 48 ± 2 | -19 | 48 ± 4 | 52 ± 5 | 54 ± 4 | +42% | 915 ± 140 | +99% | 475 ± 82 | 589 ± 101 | +45% | Number of P.F.C./10^6 cells ([2]; injection at +72 h): 543 ± 112 P.F.C./10^6 cells; Number of P.F.C./10^6 cells ([2]; injection at -24 h): 630 ± 142 P.F.C./10^6 cells; % stimulation of humoral response ([2]; injection at -24 h): +42% |
| NCCCC[C@H](NC(=O)[C@H](CC(=O)O)NC(=O)[C@@H](N)CO)C(=O)O [SDK, Ser-Asp-Lys] (H-Ser-Asp-Lys-OH) | -40 | 38 ± 3 | -28 | 45 ± 4 | -22 | 50 ± 2 | -22 | 49 ± 2 | -36 | 40 ± 2 | -32 | 43 ± 1 | 43 ± 3 | 56 ± 5 | +60% | 903 ± 133 | +97% | 459 ± 103 | 673 ± 110 | +65% | % INHIBITION of rosettes (Jurkat T cells; peptide 10^-10 M): -32%; % INHIBITION of rosettes (Jurkat T cells; peptide 10^-11 M): -36%; % ROSETTES (Jurkat T cells; peptide 10^-11 M): 40 ± 1%; % INHIBITION of rosettes (Jurkat T cells; peptide 10^-12 M): -30%; % ROSETTES (Jurkat T cells; peptide 10^-12 M): 44 ± 3%; % INHIBITION of rosettes (Jurkat T cells; peptide 10^-13 M): -19%; % ROSETTES (Jurkat T cells; peptide 10^-13 M): 51 ± 7%; % INHIBITION of rosettes (Jurkat T cells; peptide 10^-14 M): -14%; % ROSETTES (Jurkat T cells; peptide 10^-14 M): 55 ± 2%; % ROSETTES (Jurkat T cells; peptide 10^-15 M): 63 ± 4%; DNA synthesis induced in MNC stimulated by 0.1% PHA ([1]; peptide 3.10^-10 M): 52 ± 5 cpm × 10^3 /2.10^5 cells; % stimulation of DNA synthesis in MNC stimulated by 0.1% PHA ([1]; peptide 3.10^-10 M): +30%; Number of P.F.C./10^6 cells ([2]; injection at +72 h): 1073 ± 348 P.F.C./10^6 cells; % stimulation of humoral response ([2]; injection at +72 h): +134%; Number of P.F.C./10^6 cells ([2]; injection at -24 h): 644 ± 170 P.F.C./10^6 cells; % stimulation of humoral response ([2]; injection at -24 h): +45% |
